Data from patent US9351974B2, “Substituted pteridinones for the treatment of cancer” (OSI Pharmaceuticals, LLC, priority 2011, dated 2016).

Target: T1, His-tagged full-length RSK2 (RPS6KA3) (Homo sapiens, UniProt P51812)
T1 construct: His-tagged full-length RSK2 (RPS6KA3, Invitrogen PV3323); His; purchased Invitrogen PV3323
Assay: RSK2 Omnia Assay for compound IC50 determination
Type: biochemical
Conditions: ATP 15 μM, n=2, read-out: Mean RSK2 Biochem IC50
Outline: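 Initial-rate slopes from continuous kinetic reads were fitted to a four-parameter equation for IC50 (n=2). Ki was then derived by Cheng-Prusoff assuming ATP-competitive inhibition. Reactions contained 15 μM ATP (Km 16.3 μM), 5 μM Omnia ST Peptide 6, and […] in 50 mM HEPES pH 7.5, 10 mM MgCl2, 1 mM DTT, 1% DMSO. Compounds spanned 11 threefold steps, […] final.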

T1 sequence (P51812 whole entry): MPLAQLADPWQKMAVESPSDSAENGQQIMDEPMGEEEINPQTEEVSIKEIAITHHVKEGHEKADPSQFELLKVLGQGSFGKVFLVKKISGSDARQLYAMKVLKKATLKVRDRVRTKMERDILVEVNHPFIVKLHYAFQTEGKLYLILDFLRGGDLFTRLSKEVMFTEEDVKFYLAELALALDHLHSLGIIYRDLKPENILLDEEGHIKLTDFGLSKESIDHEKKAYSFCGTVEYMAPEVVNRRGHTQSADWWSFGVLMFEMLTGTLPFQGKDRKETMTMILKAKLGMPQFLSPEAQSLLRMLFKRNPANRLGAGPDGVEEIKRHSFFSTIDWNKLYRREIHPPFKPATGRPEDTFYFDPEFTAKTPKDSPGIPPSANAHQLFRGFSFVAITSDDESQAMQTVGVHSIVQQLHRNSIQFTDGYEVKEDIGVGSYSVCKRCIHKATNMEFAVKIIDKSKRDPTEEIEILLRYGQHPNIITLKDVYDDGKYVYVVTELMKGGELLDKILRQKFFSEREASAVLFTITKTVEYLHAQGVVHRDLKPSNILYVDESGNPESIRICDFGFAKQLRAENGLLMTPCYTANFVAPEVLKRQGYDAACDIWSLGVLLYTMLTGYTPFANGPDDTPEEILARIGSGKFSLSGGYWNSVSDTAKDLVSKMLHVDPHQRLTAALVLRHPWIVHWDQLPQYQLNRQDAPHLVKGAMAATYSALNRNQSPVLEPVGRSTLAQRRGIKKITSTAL

Structure (SMILES) | IC50 [nM]
C[C@@H]1C(=O)N(c2cccc(F)c2)c2cnc(Nc3cc(F)c4[nH]ncc4c3)nc2N1C1CCCCC1 [compound 137, (7R)-8-cyclohexyl-2-[(7-fluoro-1H-indazol-5-yl)amino]-5-(3-fluorophenyl)-7-methyl-7,8-dihydropteridin-6(5H)-one] | ≤ 100
C[C@@H]1C(=O)N(c2ccccc2)c2cnc(Nc3ccc4[nH]ncc4c3)nc2N1CC1CCNCC1 [Example 78, (7R)-2-(1H-indazol-5-ylamino)-7-methyl-5-phenyl-8-(piperidin-4-ylmethyl)-7,8-dihydropteridin-6(5H)-one] | > 1000
CCOP(=O)(Cc1ccc(Nc2ncc3c(n2)N(CCC(C)C)C(C)C(=O)N3c2ccccc2)cc1)OCC (centres unmarked) [Example 4, diethyl (4-{[7-methyl-8-(3-methylbutyl)-6-oxo-5-phenyl-5,6,7,8-tetrahydropteridin-2-yl]amino}benzyl)phosphonate] | > 1000
COc1cc(N2C(=O)[C@@H](C)N(C3CCCCC3)c3nc(Nc4ccc5[nH]ncc5c4)ncc32)cc(OC)c1OC [Example 38, (7R)-8-cyclohexyl-2-(1H-indazol-5-ylamino)-7-methyl-5-(3,4,5-trimethoxyphenyl)-7,8-dihydropteridin-6(5H)-one] | ≤ 100
Cc1c(Nc2ncc3c(n2)N(C2CCCCC2)[C@H](C)C(=O)N3c2cccc(C#N)c2)ccc2[nH]ncc12 [compound 117, 3-[(7R)-8-cyclohexyl-7-methyl-2-[(4-methyl-1H-indazol-5-yl)amino]-6-oxo-7,8-dihydropteridin-5(6H)-yl]benzonitrile] | 100 to 1000
CC(C)CN1c2nc(Nc3ccc4[nH]ncc4c3)ncc2N(c2ccccc2)C(=O)[C@H]1C [Example 79, (7R)-2-(1H-indazol-5-ylamino)-7-methyl-8-(2-methylpropyl)-5-phenyl-7,8-dihydropteridin-6(5H)-one] | ≤ 100
CC1C(=O)N(c2ccccc2)c2cnc(Nc3ccc4c(c3)CC(=O)N4)nc2N1C1CCCC1 (centres unmarked) [Example 65, 8-cyclopentyl-7-methyl-2-[(2-oxo-2,3-dihydro-1H-indol-5-yl)amino]-5-phenyl-7,8-dihydropteridin-6(5H)-one] | ≤ 100
COc1cc(F)cc(N2C(=O)[C@@H](C)N(C3CCCCC3)c3nc(Nc4ccc5[nH]ncc5c4)ncc32)c1 [compound 99, (7R)-8-cyclohexyl-5-(3-fluoro-5-methoxyphenyl)-2-(1H-indazol-5-ylamino)-7-methyl-7,8-dihydropteridin-6(5H)-one] | ≤ 100
COc1cc(N2C(=O)[C@@H](C)N(C3CCCCC3)c3nc(Nc4ccc5[nH]ncc5c4)ncc32)ccc1F [Example 54, (7R)-8-cyclohexyl-5-(4-fluoro-3-methoxyphenyl)-2-(1H-indazol-5-ylamino)-7-methyl-7,8-dihydropteridin-6(5H)-one] | ≤ 100
O=c1c(=O)n(C2CCCC2)c2nc(Nc3ccc4[nH]ncc4c3)ncc2n1-c1ccccc1 [Example 307, 8-cyclopentyl-2-(1H-indazol-5-ylamino)-5-phenyl-5,8-dihydropteridine-6,7-dione] | 100 to 1000
C[C@@H]1C(=O)N(c2cccc(C#N)c2)c2cnc(Nc3ccc4[nH]ncc4c3Cl)nc2N1C1CCCCC1 [compound 101, 3-[(7R)-2-[(4-chloro-1H-indazol-5-yl)amino]-8-cyclohexyl-7-methyl-6-oxo-7,8-dihydropteridin-5(6H)-yl]benzonitrile] | > 1000
C[C@@H]1C(=O)N(c2cccc(C#N)c2)c2cnc(Nc3ccc4[nH]ncc4c3)nc2N1CC1CCC1 [Example 71, 3-[(7R)-8-(cyclobutylmethyl)-2-(1H-indazol-5-ylamino)-7-methyl-6-oxo-7,8-dihydropteridin-5(6H)-yl]benzonitrile] | ≤ 100
C[C@@H]1C(=O)N(c2ccc(C(=O)O)cc2)c2cnc(Nc3ccc4[nH]ncc4c3)nc2N1C1CCCCC1 [Example 63, 4-[(7R)-8-cyclohexyl-2-(1 H-indazol-5-ylamino)-7-methyl-6-oxo-7,8-dihydropteridin-5(6H)-yl]benzoic acid] | ≤ 100
C[C@@H]1C(=O)N(c2ccccc2)c2cnc(Nc3ccc4c(c3)CC(=O)N4)nc2N1C1CCCC1 [Example 68, (7R)-8-cyclopentyl-7-methyl-2-[(2-oxo-2,3-dihydro-1H-indol-5-yl)amino]-5-phenyl-7,8-dihydropteridin-6(5H)-one] | ≤ 100
C[C@@H]1C(=O)N(c2ccc(N(C)C)nc2)c2cnc(Nc3ccc4[nH]ncc4c3)nc2N1C1CCCCC1 [compound 129, (7R)-8-cyclohexyl-5-[6-(dimethylamino)pyridin-3-yl]-2-(1H-indazol-5-ylamino)-7-methyl-7,8-dihydropteridin-6(5H)-one] | ≤ 100
COc1ccc(N2C(=O)[C@@H](C)N(C3CCCCC3)c3nc(Nc4cc(F)c5[nH]ncc5c4)ncc32)cc1C#N [compound 136, 5-[(7R)-8-cyclohexyl-2-[(7-fluoro-1H-indazol-5-yl)amino]-7-methyl-6-oxo-7,8-dihydropteridin-5(6H)-yl]-2-methoxybenzonitrile] | ≤ 100
C[C@@H]1C(=O)N(c2cccc(C#N)c2)c2cnc(Nc3ccc4[nH]ncc4c3)nc2N1CC1CCOC1 (stereo partly drawn) [Example 82, 3-[(7R)-2-(1H-indazol-5-ylamino)-7-methyl-6-oxo-8-(tetrahydrofuran-3-ylmethyl)-7,8-dihydropteridin-5(6H)-yl]benzonitrile] | ≤ 100
C[C@@H]1C(=O)N(c2cccc(C#N)c2)c2cnc(Nc3cc(F)c4c(c3)CC(=O)N4)nc2N1C1CCCCC1 [compound 145, 3-[(7R)-8-cyclohexyl-2-[(7-fluoro-2-oxo-2,3-dihydro-1H-indol-5-yl)amino]-7-methyl-6-oxo-7,8-dihydropteridin-5(6H)-yl]benzonitrile] | ≤ 100
C[C@@H]1C(=O)N(c2ccc(N3CCCC3)c(C#N)c2)c2cnc(Nc3cc(F)c4[nH]ncc4c3)nc2N1C1CCC(C)(C)CC1 [Example 212, 5-[(7R)-8-(4,4-dimethylcyclohexyl)-2-[(7-fluoro-1H-indazol-5-yl)amino]-7-methyl-6-oxo-7,8-dihydropteridin-5(6H)-yl]-2-(pyrrolidin-1-yl)benzonitrile] | ≤ 100

The next lines start with the values.

IC50 [nM] | Structure (SMILES)
100 to 1000 | C[C@@H]1C(=O)N(c2cccc(C#N)c2)c2cnc(Nc3ccc4c(c3)CS(=O)(=O)N4)nc2N1[C@H]1CC[C@H](C)CC1 [compound 250, 3-[(7R)-2-[(2,2-dioxido-1,3-dihydro-2,1-benzothiazol-5-yl)amino]-7-methyl-8-(trans-4-methylcyclohexyl)-6-oxo-7,8-dihydropteridin-5(6H)-yl]benzonitrile]
≤ 100 | CC(C)Oc1ccc(N2C(=O)[C@@H](C)N(C3CCC(F)(F)CC3)c3nc(Nc4cc(F)c5[nH]c(=O)oc5c4)ncc32)cc1C#N [compound 278, 5-[(7R)-8-(4,4-difluorocyclohexyl)-2-[(4-fluoro-2-oxo-2,3-dihydro-1,3-benzoxazol-6-yl)amino]-7-methyl-6-oxo-7,8-dihydropteridin-5(6H)-yl]-2-(propan-2-yloxy)benzonitrile]
≤ 100 | C[C@@H]1C(=O)N(c2cccc(C#N)c2)c2cnc(Nc3cnc4[nH]c(=O)oc4c3)nc2N1C1CCCCC1 [compound 172, 3-[(7R)-8-cyclohexyl-7-methyl-6-oxo-2-[(2-oxo-2,3-dihydro[1,3]oxazolo[4,5-b]pyridin-6-yl)amino]-7,8-dihydropteridin-5(6H)-yl]benzonitrile]
100 to 1000 | CO[C@H]1CC[C@H](N2c3nc(Nc4cc5cn[nH]c5cn4)ncc3N(c3cccc(C#N)c3)C(=O)[C@H]2C)CC1 [compound 230, 3-[(7R)-8-(trans-4-methoxycyclohexyl)-7-methyl-6-oxo-2-(1H-pyrazolo[3,4-c]pyridin-5-ylamino)-7,8-dihydropteridin-5(6H)-yl]benzonitrile]
≤ 100 | CCOc1ccc(N2C(=O)[C@@H](C)N(C3CCOCC3)c3nc(Nc4cnc5[nH]ncc5c4)ncc32)cc1C#N [compound 201, 2-Ethoxy-5-[(7R)-7-methyl-6-oxo-2-(1H-pyrazolo[3,4-b]pyridin-5-ylamino)-8-(tetrahydro-2H-pyran-4-yl)-7,8-dihydropteridin-5(6H)-yl]benzonitrile]
≤ 100 | COc1ccc(N2C(=O)[C@@H](C)N([C@H]3CC[C@@H](OC)CC3)c3nc(Nc4cc(F)c5[nH]ncc5c4)ncc32)cc1OC [compound 226, (7R)-5-(3,4-dimethoxyphenyl)-2-[(7-fluoro-1H-indazol-5-yl)amino]-8-(cis-4-methoxycyclohexyl)-7-methyl-7,8-dihydropteridin-6(5H)-one]
≤ 100 | COc1ccc(N2C(=O)[C@@H](C)N([C@H]3CC[C@@H](C(F)(F)F)CC3)c3nc(Nc4cc(F)c5[nH]ncc5c4)ncc32)cc1OC [compound 257, (7R)-5-(3,4-dimethoxyphenyl)-2-[(7-fluoro-1H-indazol-5-yl)amino]-7-methyl-8-[cis-4-(trifluoromethyl)cyclohexyl]-7,8-dihydropteridin-6(5H)-one]
≤ 100 | COc1ccc(N2C(=O)[C@@H](C)N(C3CCCCC3)c3nc(Nc4ccc(C(=O)O)cc4)ncc32)cc1OC [compound 148, 4-{[(7R)-8-cyclohexyl-5-(3,4-dimethoxyphenyl)-7-methyl-6-oxo-5,6,7,8-tetrahydropteridin-2-yl]amino}benzoic acid]
≤ 100 | C[C@@H]1C(=O)N(c2cccc(C#N)c2)c2cnc(Nc3cc(F)c(O)c(F)c3)nc2N1C1CCC(F)(F)CC1 [compound 276, 3-[(7R)-8-(4,4-difluorocyclohexyl)-2-[(3,5-difluoro-4-hydroxyphenyl)amino]-7-methyl-6-oxo-7,8-dihydropteridin-5(6H)-yl]benzonitrile]
≤ 100 | COc1ccc(N2c3nc(Nc4cc(F)c5[nH]ncc5c4)ncc3N(c3cccc(C#N)c3)C(=O)[C@H]2C)cc1 [compound 182, 3-[(7R)-2-[(7-fluoro-1H-indazol-5-yl)amino]-8-(4-methoxyphenyl)-7-methyl-6-oxo-7,8-dihydropteridin-5(6H)-yl]benzonitrile]
